{
  "source": "patent US20070004680A1",
  "about": "“Compositions and methods for modulating gated ion channels” (PainCeptor Pharma Corporation, priority 2004, published 2007)",
  "target": "T1, ASIC1a (Rattus norvegicus, UniProt P55926)",
  "T1 construct": "expressed in transfected cells; host or cells: HEK cells according to b213",
  "T1 sequence (P55926 1-526)": "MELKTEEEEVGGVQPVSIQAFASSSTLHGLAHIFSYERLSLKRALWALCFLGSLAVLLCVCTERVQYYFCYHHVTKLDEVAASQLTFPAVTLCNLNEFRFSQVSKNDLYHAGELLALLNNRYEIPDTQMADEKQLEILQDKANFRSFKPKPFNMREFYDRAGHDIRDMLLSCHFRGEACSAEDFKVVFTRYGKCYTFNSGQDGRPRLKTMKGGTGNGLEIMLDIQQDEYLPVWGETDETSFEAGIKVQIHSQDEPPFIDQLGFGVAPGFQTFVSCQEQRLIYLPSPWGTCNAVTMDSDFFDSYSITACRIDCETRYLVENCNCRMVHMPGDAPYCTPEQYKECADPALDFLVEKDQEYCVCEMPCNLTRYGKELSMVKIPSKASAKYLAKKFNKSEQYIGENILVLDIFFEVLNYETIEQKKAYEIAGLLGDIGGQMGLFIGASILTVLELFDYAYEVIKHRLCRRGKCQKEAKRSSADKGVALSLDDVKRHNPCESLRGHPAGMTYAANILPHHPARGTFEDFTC",
  "test": "whole cell patch clamp electrophysiology, ASIC1a",
  "format": "cell-based",
  "details": "for Fraction of Control, ASIC1a - pH Dependency: 10 μM compound",
  "method": "Another example of an in vitro assessment method consists of using mammalian heterologous expression systems, which are known to the skilled in the art, and include a variety of mammalian cell lines such as COS, HEK, e.g., HEK293and/or CHO, cells. Cell lines are transfected with gated ion channel(s) and used to perform electrophysiology as follows:\nAll experiments are performed at room temperature (20-25° C.) in voltage clamp using conventional whole cell patch clamp methods (Neher, E., et al. (1978) Pfluegers Arch 375:219-228).\nThe amplifier used is the EPC-9 (HEKA-electronics, Lambrect, Germany) run by a Macintosh G3 computer via an ITC-16 interface. Experimental conditions are set with the Pulse-software accompanying the amplifier. Data is low pass filtered and sampled directly to hard-disk at a rate of 3 times the cut-off frequency.\nPipettes are pulled from borosilicate glass using a horizontal electrode puller (Zeitz-lnstrumente, Augsburg, Germany). The pipette resistances are 2-3 MOhms in the salt solutions used in these experiments. The pipette electrode is a chloridized silver wire, and the reference is a silver chloride pellet electrode (In Vivo Metric, Healdsburg, USA) fixed to the experimental chamber. The electrodes are zeroed with the open pipette in the bath just prior to sealing.\nCoverslips with the cells are transferred to a 15 μl experimental chamber mounted on the stage of an inverted microscope (IMT-2, Olympus) supplied with Nomarski optics. Cells are continuously superfused with extracellular saline at a rate of 2.5 ml/min. After giga-seal formation, the whole cell configuration is attained by suction. The cells are held at a holding voltage of −60 mV and at the start of each experiment the current is continuously measured for 45 s to ensure a stable baseline. Solutions of low pH (<7) are delivered to the chamber through a custom-made gravity-driven flowpipe, the tip of which is placed approximately 50 μm from the cell. Application is triggered when the tubing connected to the flowpipe is compressed by a valve controlled by the Pulse-software. Initially, low pH (in general, pH 6.5) is applied for 1 s every 45 s. The sample interval during application is 550 μs. After stable responses are obtained, the extracellular saline as well as the low-pH solution are switched to solutions containing the compound to be tested. The compound is present until responses of a repeatable amplitude are achieved. Current amplitudes are measured at the peak of the responses, and effect of the compounds is calculated as the amplitude at compound equilibrium divided by the amplitude of the current evoked by the pulse just before the compound was included.\nThe following salt solutions are used: extracellular solution (mM): NaCl (140), KCl (4), CaCl2 (2), MgCl2 (4), HEPES (10, pH 7.4); intracellular solution (mM): KCl (120), KOH (31), MgCl2 (1.785), […] (10), HEPES (10, pH 7.2). In general, compounds for testing are dissolved in 50% DMSO at 500 fold the highest concentration used.\nThe cDNA for ASIC1a and ASIC3 can be cloned from rat poly(A)^+ mRNA and put into expression vectors according to Hesselager et al. (J Biol Chem. 279(12):11006-15 2004). All constructs are expressed in CHO-K1 cells (ATCC no. CCL61). CHO-K1 cells are cultured at 37° C. in a humidified atmosphere of 5% CO2 and 95% air and passaged twice every week. The cells are maintained in DMEM (10 mM HEPES, 2 mM glutamax) supplemented with 10% fetal bovine serum and 2 mM L-proline (Life Technologies). […]",
  "note": "pIC50: −log10 of the molar value.",
  "data": [
    {"smiles": "C=CC1CN2CCC1CC2[C@@H](OC(=O)CCC1CCCC1)c1ccnc2ccccc12", "note": "(stereo partly drawn) [Compound A]", "values": [
      {"measurement": "Fraction of Control, ASIC1a - pH Dependency", "setting": "pH 5.0", "value": "greater than .85"},
      {"measurement": "Fraction of Control, ASIC1a - pH Dependency", "setting": "pH 6.0", "value": "greater than .85"},
      {"measurement": "pIC50", "setting": "patch clamp, HEK cells, pH 6.5", "value": "4.64 to 4.77"}
    ]}
  ]
}
